Among the data in article PMC11090936, “The leukemia inhibitory factor regulates fibroblast growth factor receptor 4 transcription in gastric cancer” (Cellular Oncology, 2023) are IC50 values, retold here.

One may read the IC50 as the concentration at which inhibition is half-maximal. Low values mean inhibition by little substance, high ones a need for much substance.

This test addresses T1, LIFR (leukemia inhibitory factor receptor) (Homo sapiens, UniProt P42702).
T1 construct: with LIF
In words: cell-free AlphaScreen, inhibition of LIF/LIFR binding. A general note: In Alpha technology, singlet oxygen from a donor bead excites a nearby acceptor bead.

T1 sequence (P42702 45-1097): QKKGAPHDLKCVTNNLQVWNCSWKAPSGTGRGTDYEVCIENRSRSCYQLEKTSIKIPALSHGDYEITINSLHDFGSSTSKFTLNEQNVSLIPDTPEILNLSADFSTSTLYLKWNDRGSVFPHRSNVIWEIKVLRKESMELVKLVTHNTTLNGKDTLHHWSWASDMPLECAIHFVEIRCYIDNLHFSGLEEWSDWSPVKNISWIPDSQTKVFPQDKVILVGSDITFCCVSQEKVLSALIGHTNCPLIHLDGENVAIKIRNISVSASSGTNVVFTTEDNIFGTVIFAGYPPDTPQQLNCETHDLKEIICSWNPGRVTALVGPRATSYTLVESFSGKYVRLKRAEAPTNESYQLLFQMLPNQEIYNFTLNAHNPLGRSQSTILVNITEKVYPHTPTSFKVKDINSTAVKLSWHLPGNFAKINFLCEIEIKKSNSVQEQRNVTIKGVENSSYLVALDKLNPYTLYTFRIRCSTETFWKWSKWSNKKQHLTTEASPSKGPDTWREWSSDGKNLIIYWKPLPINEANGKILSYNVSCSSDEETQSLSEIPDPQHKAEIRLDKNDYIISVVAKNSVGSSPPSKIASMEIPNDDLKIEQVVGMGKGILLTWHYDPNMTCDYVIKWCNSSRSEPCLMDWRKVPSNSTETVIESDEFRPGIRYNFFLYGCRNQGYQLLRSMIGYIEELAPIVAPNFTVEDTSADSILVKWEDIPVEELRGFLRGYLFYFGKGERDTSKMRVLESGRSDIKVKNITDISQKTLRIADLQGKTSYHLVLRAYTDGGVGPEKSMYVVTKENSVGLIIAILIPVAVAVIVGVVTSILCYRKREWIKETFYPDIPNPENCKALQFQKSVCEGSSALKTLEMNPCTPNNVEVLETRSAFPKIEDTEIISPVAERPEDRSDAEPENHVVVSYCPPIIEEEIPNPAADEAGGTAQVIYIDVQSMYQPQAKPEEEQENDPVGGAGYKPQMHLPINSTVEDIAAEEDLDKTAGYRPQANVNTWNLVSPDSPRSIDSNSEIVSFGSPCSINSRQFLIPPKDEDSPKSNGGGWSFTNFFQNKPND
T1 sequence (P15018 23-202 partner): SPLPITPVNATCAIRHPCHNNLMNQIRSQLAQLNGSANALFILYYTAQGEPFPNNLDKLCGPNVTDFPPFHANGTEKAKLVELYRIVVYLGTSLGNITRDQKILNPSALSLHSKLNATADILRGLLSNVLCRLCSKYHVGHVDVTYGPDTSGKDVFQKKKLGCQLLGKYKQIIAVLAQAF

As to `C=CC[C@]1(O)CCC2C3CCC4=CC(=O)CCC4=C3[C@@H](c3ccc(-c4ccccc4)cc3)C[C@@]21C` (stereo partly shown) [LRI-201], the concentration for half-maximal inhibition (IC50) is 21.9 ± 2.16 µM.
